# Experimental data taken from patent US20240197760A1, “ACTIVATORS OF INTEGRATED STRESS RESPONSE PATHWAY FOR PROTECTION AGAINST FERROPTOSIS” (Burke Neurological Institute, priority 2021, published 2024).
# *1 amine or outer side, *2 acyl side, *3 side chain or, on linkers, in order; H or OH if unused. Where a SMILES comes first, the peptide text is derived from it. Bridges are numbered along the chain shown (N, C = ends). Roman numbers before positions name the chains, in order. [ ]: non-standard residue; d: D form. Actinocin(9to1) = Cc1c2oc3c(C)ccc(C(=O)[*:1])c3nc-2c(C(=O)[*:2])c(N)c1=O; NMeV = CN[C@H](C(=O)O)C(C)C; Sar = CNCC(=O)O
# Tests used:
# Creb1, Bdnf, Rbbp4 = test: Plasticity gene expression by quantitative real time PCR in mouse primary neurons; assay type: cell-based; settings: for effect on 2-DG led increase in Bdnf gene expression: increasing concentrations co-treated with 2-DG
# Description: Primary immature neuronal cultures were prepared from cerebral cortex of E14 embryos (day 14 of gestation) of CD1 mice under sterile conditions. Dissected cortices were incubated at 37° C. for 20 min in EBSS solution containing papain, L-cystine and EDTA, which was activated at 37 °C for 30 min and then was filtered through […] (Millipore, catalog number—SCGP00525). Cortices were then mechanically dissociated by trituration with glass pipettes. The rDNase was added in dissociated cells followed by incubation of these dissociated cells at 37 °C for 3 min. Thereafter, these cells were centrifuged at 2800 rpm for 5 min. Then supernatant was discarded, and cell were resuspended gently in a 5 ml mixture of EBSS and 10/10 solution (4:1 ratio). Then 5 ml of 10/10 solution was added gently on top and these resuspended cells were centrifuged at 2800 rpm for 10 min. Supernatant was again discarded and cells were resuspended in 10 ml MEM, Glutamax supplement (Thermo Fisher Scientific, Catalog number—41090036) containing 10% heat inactivated fetal bovine serum (Thermo Fisher Scientific, Catalog number—16140071), 5% heat inactivated horse serum (Thermo Fisher Scientific, Catalog number—26050088), and 1% penicillin/streptomycin (Thermo Fisher Scientific, Catalog number—15140122). Thereafter, resuspended cells were filtered through 70-micron cell strainer (Thomas Scientific, catalog number—4620F02) followed by their counting through Hemocytometer. Cells were, finally, plated at the density of 1 million cells/ml onto poly-D-Lysine (PDL; Sigma Aldrich, catalog number—P6407-10X5MG) coated pates and placed in CO2-buffered incubators at 37° C.
# (§1) Total RNA was extracted from primary cortical neurons using NucleoSpin RNA II Kit (Clontech, Catalog number—740955-250). Thereafter, using the Taqman RNA-to-Ct, one step kit (Thermo Fisher Scientific, catalog number—4392938) and following the manufacturer's instructions, […] from each sample was mixed with the Taqman® Gene Expression Master Mix and Taqman® Gene Expression Assays for Creb1 (Catalog number—Mm00501607_m1), Bdnf (Catalog number—Mm04230607_s1), Rbbp4 (Catalog number—Mm00771401_g1), Bip (Catalog number—Mm00517691_m1), Trib3 (Catalog number—Mm00454879_m1), and Chac1 (Catalog number—Mm00509926_m1) with FAM labelled probe and Actin with VIC labelled probe all from Thermo Fisher Scientific on an Applied Biosystems 7500 Fast Real Time PCR System. For assessing gene expression of various specific Bdnf exons in mouse primary neurons, two step qPCR was used. Total RNA from primary cortical neurons was extracted using NucleoSpin RNA II Kit (Clontech, Catalog number—740955-250) and a total of 1.5 μg RNA was used to synthesize cDNA with the SuperScript® III First-Strand Synthesis System (Thermo Fisher Scientific, Catalog number—18080051). Quantitative RT-PCR was then performed using SYBR green (Thermo Fisher Scientific, Catalog number—4309155) on an Applied Biosystems 7500 Fast Real Time PCR System. Quantitative levels for all genes were normalized to the housekeeping gene GAPDH and expressed relative to the relevant control samples as fold change. The sequences of primers used in this part of the study were as follows: Bdnf I forward: […] (SEQ ID NO:9) and Bdnf I reverse: […] (SEQ ID NO:10); Bdnf II forward: […] (SEQ ID NO:11) and Bdnf II reverse: […] (SEQ ID NO:12); Bdnf IV forward #2: […] (SEQ ID NO:13) and Bdnf IV reverse #2: […] (SEQ ID NO:14); Bdnf VI forward: […] (SEQ ID NO:15) and Bdnf VI reverse: […] (SEQ ID NO:16); Bdnf VII forward: […] (SEQ ID NO:17) and Bdnf VII reverse: […] (SEQ ID NO:18) Bdnf IX forward: […] (SEQ ID NO:19) and Bdnf IX reverse: […] (SEQ ID NO:20); Gapdh forward #2: […] (SEQ ID NO:21) and Gapdh reverse #2: […] (SEQ ID NO: 22).
# hippocampal slices = test: Long term potentiation (fEPSP) in submerged hippocampal slices; design: species or system mouse; settings: 1 μg/ml with 2-DG 10 mM, 6 h, hippocampal slices
# Excerpt: Brains were quickly removed from mice sacrificed by cervical dislocation and placed in cold artificial cerebrospinal fluid (ACSF) (bubbled with 95% O2/5% CO2) containing (in mM): 124 NaCl, 4 KCl, 1 Na2HPO4, 25 NaHCO3, 2 CaCl2, 2 MgCl2, and 10 glucose. The pH and osmolarity of the solution were 7.4 and 310 mOsm/L, respectively. The hippocampus was isolated and placed on a mechanical tissue chopper to produce transverse hippocampal slices of 400 μm thickness. […] Hippocampal slices were allowed to recover for at least 90 min prior to beginning the experiment. For recordings, glass electrodes were filled with ACSF and positioned in the CA1 stratum radiatum to record fEPSPs evoked by local stimulation (0.1 ms) of Schaffer collateral fibers using a bipolar concentric electrode placed laterally to the recording electrode (˜150 μm). For LTP recordings, the voltage intensity of the stimulation test pulse (square pulse, 100 us duration) for each slice was determined to be the voltage intensity that had generated 30-40% of the maximum slope obtained using input-output relationships. Facilitation was calculated as the ratio of the slopes of the second and first fEPSPs, and plotted as a function of the inter-pulse duration. For LTP, a test pulse was applied every minute. […] Residual potentiation was calculated as the average of the last 15 min of 2 h of recordings.
# Bdnf = Bdnf gene expression in hippocampal slices submerged in ACSF; design: species or system mouse; settings: 1 μg/ml with 2-DG 10 mM in ACSF
# Trib3, Chac1, Bip = test: Expression of ATF4 target genes and chaperone Bip in mouse primary neurons; assay type: cell-based; settings: for effect on glucosamine induced expression of Trib3: co-treatment with glucosamine, primary neurons
# Description: as §1
# [1] = tested on: Trib3 promoter, Bdnf promoter; test: Promoter reporter luciferase assay in primary neurons; assay type: cell-based, mouse; settings: 5 μM co-treated with 2-DG 10 mM, 9 h
# Description: Primary neurons were co-transfected with various plasmids such as different Bdnf exon promoters each tagged with firefly luciferase or Trib3 promoter tagged with firefly luciferase and pTK-renilla luciferase plasmid at 1:10 ratio using Lipofectamine 2000 (Thermo Fisher Scientific, catalog number—11668019) according to the manufacturer's instructions to control for transfection efficiency. […] Thereafter, luciferase activity was measured using dual luciferase assay kit (Promega) and bioluminometer (MDS Analytical Technologies). Final luciferase activity was calculated by normalizing firefly luciferase activity with Renilla luciferase activity and then the valued were converted to fold change with respect to control.
# [2] = 5 μM co-treated with 2-DG 10 mM, 9 h
# [3] = 3 μM, 6 h, mouse primary neurons
molecule,measurement,setting,value
"Cc1c2oc3c(C)ccc(C(=O)N[C@@H]4C(=O)N[C@H](C(C)C)C(=O)N5CCC[C@H]5C(=O)N(C)CC(=O)N(C)[C@@H](C(C)C)C(=O)O[C@@H]4C)c3nc-2c(C(=O)N[C@@H]2C(=O)N[C@H](C(C)C)C(=O)N3CCC[C@H]3C(=O)N(C)CC(=O)N(C)[C@@H](C(C)C)C(=O)O[C@@H]2C)c(N)c1=O [ActD, actinomycin D] (I: T[dV]P[Sar][NMeV] / II: T[dV]P[Sar][NMeV]; ester I:1-I:C, II:1-II:C; linker I:N-II:N via Actinocin(9to1))","effect on 2-DG led increase in plasticity genes Creb1, Bdnf and Rbbp4","Creb1, Bdnf, Rbbp4; co-treatment with 2-DG, 6 h, mouse immature primary neurons",completely blocked
same,effect on 2-DG led induction in LTP,hippocampal slices,completely blocked
same,effect on 2-DG led increase in Bdnf gene expression in hippocampal slices,Bdnf,able to block
O=C[C@H](O)[C@@H](O)[C@H](O)[C@H](O)CO [D-glucose],effect on 2-DG led increase in Bdnf gene expression,"Creb1, Bdnf, Rbbp4; 6 h, mouse primary neurons",decreased 2-DG led increase in Bdnf gene expression in a dose dependent manner
O=C[C@@H](O)[C@@H](O)[C@H](O)[C@H](O)CO [D-mannose],effect on 2-DG led increase in Bdnf gene expression,"Creb1, Bdnf, Rbbp4; 6 h, mouse primary neurons",decreased 2-DG led increase in Bdnf gene expression in a dose dependent manner
N[C@H]1C(O)O[C@H](CO)[C@@H](O)[C@@H]1O (stereo partly shown) [glucosamine],glucosamine induced expression of plasticity genes in combination with actinomycin D,"Creb1, Bdnf, Rbbp4; 6 h, mouse immature primary neurons",transcription dependent
same,"expression of plasticity genes Creb1, Bdnf and Rbbp4 (mRNA)","Creb1, Bdnf, Rbbp4; increasing concentrations, 6 h, mouse primary neurons",dose dependent increase
"Cn1cc(-c2ccc3c(c2)CCN3C(=O)Cc2cccc(C(F)(F)F)c2)c2c(N)ncnc21 [GSK2606414, 7-methyl-5-(1-{[3-(trifluoromethyl)phenyl]acetyl}-2,3-dihydro-1H-indol-5-yl)-7H-pyrrolo[2,3-d]pyrimidin-4-amine]",effect on 2-DG led increase in Bdnf expression (mRNA),"Creb1, Bdnf, Rbbp4; [2]",blocked
same,effect on glucosamine led increase in Bdnf gene expression,"Creb1, Bdnf, Rbbp4; co-treatment with glucosamine, primary neurons",blocked
same,effect on 2-DG led increase in Trib3 expression (mRNA),"Trib3, Chac1, Bip; [2]",completely blocked
same,effect on glucosamine induced expression of Trib3,"Trib3, Chac1, Bip",blocked
same,effect on glucosamine induced expression of Trib3,"Trib3, Chac1, Bip; listed as PERK inhibitor I",completely blocked
same,effect on 2-DG led increase in Bdnf promoter activity,[1],blocked
same,effect on 2-DG led increase in Trib3 promoter activity,[1],completely blocked
tunicamycin,expression of plasticity genes Creb1 and Bdnf,"Creb1, Bdnf, Rbbp4; [3]",increase
same,gene expression of chaperone Bip,"Trib3, Chac1, Bip; [3]",increase
